By IC50 is commonly meant the concentration needed to halve the response being measured. A word on the microsomal CLint: it is the capacity of the preparation to metabolise the compound, expressed as a volume cleared per time. Low values mean slow turnover, high ones rapid turnover.

The values that follow come from patent US12630565B2, “DNA-dependent protein kinase inhibitor” (DIZAL (JIANGSU) PHARMACEUTICAL CO., LTD., priority 2019, dated 2026).

In series [1] the target is Full length human DNAPK protein (Homo sapiens, UniProt P78527). Kind of series: DNA-PK enzymatic assay (TR-FRET). In kind it is biochemical. The settings on record: 10 μM ATP, 1.6 μM peptide substrate. In general terms: TR-FRET usually uses a lanthanide donor and a delayed reading to cut background.
The next series concerns Rat hepatocyte. Kind of series: Metabolic stability assay (rat hepatocyte Clint). It counts as in vitro ADME. The note with it: 1 μM compound, cryopreserved hepatocytes 1 million cells per mL. How it is done: Viability of cryopreserved hepatocytes was determined using trypan blue and the cell conc. was adjusted to […] with buffer. 1 μM compound (in Acetonitrile; 0.01% DMSO) was incubated with 250 μL of hepatocytecells (1 million cells per mL) in a 96 deep well plate. Reaction was stopped at different time points (0, 0.5, 5, 15, 30, 45, 60, 80, 100 and 120 min) by addition of 3 volumes of chilled acetonitrile to 20 μL of reaction mixture and centrifuged at 4° C. for 15 min. 40 μL of supernatant was diluted to 200 μL with pure water and analyzed using LC-MS/MS.
In vitro hepatocyte clearance was estimated based on determination of elimination half-life (T1/2) of compounds disappearance from their initial concentrations. Peak area ratios of each compound (test or control) to IS was calculated. Drug elimination rate constant k (min−1), T1/2 (min), and in vitro intrinsic clearance CLint (μL/min/E6) was calculated according to the following equations: […]
Where Chep (cells×μL^−1) is the cell concentration in the incubation system.

The nature of series [2]: Metabolic stability assay (human microsomal Clint). In kind it is in vitro ADME. The note with it: human, pooled human liver microsomes, pH 7.4, 1 μM compound, 1 mg/mL microsomes, 1 mM NADPH, 37° C. How it is done:
1 μM compound was incubated with 1 mg/mL of microsomes (Pooled HLM with 20 mg/ml protein cone) at 37° C. in 250 μL of buffer (100 mM phosphate buffer, pH-7.4) containing 1 mM NADPH solution. 20 μL of incubation mix was quenched with 5 volumes chilled acetonitrile at different time points 0, 0.5, 5, 10, 15, 20 and 30 min in a fresh 96 well plate. The quench plate was centrifuged at 4000 rpm for 15 min. 40 μL of supernatant was diluted to 200 μL with pure water and analyzed using LC-MS/MS.
In vitro intrinsic clearance of the drugs in the microsome CLint (μl/min/mg) was calculated in the similar manner as the CLint in the hepatocyte.
(In general: Liver microsomes are vesicles of endoplasmic reticulum, rich in cytochrome P450 enzymes.)

The subject of a further series is MDR1, BCRP. Kind of series: MDCKII-MDR1-BCRP efflux assay. In kind it is in vitro ADME. The note with it: dog, pH 7.4, 5 μM compound, HBSS pH 7.4, read-out: MDCK-Mdr1-BCRP efflux ratio. How it is done:
The apical-to-basolateral (A-B) and basolateral-to-apical (B-A) transport of compound in HBSS (25 mM HEPES, pH 7.4) was measured across MDCKII-MDR1-BCRP cell monolayers. Incubations were performed at approximately 37° C. for 120 min, with functionality of the test system being confirmed using 5 μM digoxin as a positive control substrate. Transport of 5 μM compound and control compound were determined by quantifying substrate concentration in the incubation medium of donor compartment at the beginning of the incubation period, and both donor and receiver compartments at the end of the incubation period. The data was used to calculate the apparent permeability (Papp). All incubations were performed in triplicate and integrity of the cell monolayers was confirmed using the marker Lucifer yellow.
The permeability coefficient Pexact (cm/s) was calculated using the equation: […]
The Pexact ratio was calculated using the equation: […]
The efflux ratio was calculated using the equation: […]
Where dCr/dt is the cumulative concentration of compound in the receiver chamber as a function of time (μM/s); Vr is the solution volume in the receiver chamber (0.1 mL on the apical side, 0.3 mL on the basolateral side); A is the surface area for the transport, i.e. 0.11 cm2 for the area of the monolayer; CO is the initial concentration in the donor chamber (μM).

In series [1], `Cc1cc2ncnn2cc1Nc1ncc2c(C)nn(C3CCCOC3)c2n1` (single isomer, unassigned) [Example 29, 3-methyl-N-(7-methyl-[1,2,4]triazolo[1,5-a]pyridin-6-yl)-1-(tetrahydro-2H-pyran-3-yl)-1H-pyrazolo[3,4-d]pyrimidin-6-amine] came in with a half-maximal inhibitory concentration (IC50) of 2 nM. Further, in the series on Rat hepatocyte, the “Rat hepatocyte CLint (μl/min/10^−6 cells)” value (from here on “Rat hepatocyte CLint”) was 13.3 μl/min/10^−6 cells. The same molecule registered a microsomal CLint at 1 μM in series [2] of 24.5 µL/min/mg. For the same molecule, the efflux ratio at 120 min, 5 μM in the series on MDR1, BCRP stood at 1.6.
For `Cc1cc2ncnn2cc1Nc1ncc2c(C)nn(C3CCCOCC3)c2n1` (single isomer, unassigned) [Example 33, 3-methyl-N-(7-methyl-[1,2,4]triazolo[1,5-a]pyridin-6-yl)-1-(oxepan-4-yl)-1H-pyrazolo[3,4-d]pyrimidin-6-amine], in that order: 1.5 nM, 11.3 μl/min/10^−6 cells, 41.5 µL/min/mg and 3.
On the same counts, the results for `Cc1cc2ncnn2cc1Nc1ncc2c(C)nn(C3CCOC(C)C3)c2n1` (single isomer, unassigned) [Example 35, 3-methyl-N-(7-methyl-[1,2,4]triazolo[1,5-a]pyridin-6-yl)-1-(2-methyltetrahydro-2H-pyran-4-yl)-1H-pyrazolo[3,4-d]pyrimidin-6-amine] are 2.8 nM, 21.7 μl/min/10^−6 cells, 55.4 µL/min/mg and 1.7.
For `Cc1cc2ncnn2cc1Nc1ncc2c(C)nn(C3CCOC3)c2n1` (single isomer, unassigned) [Example 48, 3-methyl-N-(7-methyl-[1,2,4]triazolo[1,5-a]pyridin-6-yl)-1-(tetrahydrofuran-3-yl)-1H-pyrazolo[3,4-d]pyrimidin-6-amine], in that order: 1.8 nM, <1 μl/min/10^−6 cells, 11.1 µL/min/mg and 3.6.
For `Cc1cc2ncnn2cc1Nc1ncc2c(C)nn(CC3CCCO3)c2n1` (single isomer, unassigned) [Example 50, 3-methyl-N-(7-methyl-[1,2,4]triazolo[1,5-a]pyridin-6-yl)-1-((tetrahydrofuran-2-yl)methyl)-1H-pyrazolo[3,4-d]pyrimidin-6-amine], the midpoint of inhibition in series [1], the IC50, lay at 7 nM. For the same molecule, in the series with Rat hepatocyte, the “Rat hepatocyte CLint” value is given as 2.1 μl/min/10^−6 cells. In series [2], this molecule registered an intrinsic metabolic clearance (microsomal CLint) at 1 μM of 12.2 µL/min/mg. Moreover, the efflux ratio at 120 min, 5 μM in the series on MDR1, BCRP is 2.7.
On the same counts, the results for `Cc1cc2ncnn2cc1Nc1ncc2c(C)nn(CC3CCOC3)c2n1` (single isomer, unassigned) [Example 52, 3-methyl-N-(7-methyl-[1,2,4]triazolo[1,5-a]pyridin-6-yl)-1-((tetrahydrofuran-3-yl)methyl)-1H-pyrazolo[3,4-d]pyrimidin-6-amine] are 10.8 nM, 4.9 μl/min/10^−6 cells, 14.1 µL/min/mg and 3.2.
On the same counts, the results for `Cc1cc2ncnn2cc1Nc1ncc2c(C)nn(C3CC(C)OC(C)C3)c2n1` (single isomer, unassigned) [Example 86, 1-(2,6-dimethyltetrahydro-2H-pyran-4-yl)-3-methyl-N-(7-methyl-[1,2,4]triazolo[1,5-a]pyridin-6-yl)-1H-pyrazolo[3,4-d]pyrimidin-6-amine] are 2.4 nM, 33.4 μl/min/10^−6 cells, > 300 µL/min/mg and 1.4.
On the same counts, the results for `COC1CCC(n2nc(C)c3cnc(Nc4cn5ncnc5cc4C)nc32)C1` (single isomer, unassigned) [Example 108, 1-(3-methoxycyclopentyl)-3-methyl-N-(7-methyl-[1,2,4]triazolo[1,5-a]pyridin-6-yl)-1H-pyrazolo[3,4-d]pyrimidin-6-amine] are 1.9 nM, 17.2 μl/min/10^−6 cells, 89 µL/min/mg and 2.
In the case of `Cc1cc2ncnn2cc1Nc1ncc2c(C)nn(C3CCOCC3C)c2n1` (single isomer, unassigned) [Example 112, 3-methyl-N-(7-methyl-[1,2,4]triazolo[1,5-a]pyridin-6-yl)-1-(3-methyltetrahydro-2H-pyran-4-yl)-1H-pyrazolo[3,4-d]pyrimidin-6-amine], the half-inhibitory concentration (IC50) in series [1] came out at 3.7 nM. Further, the “Rat hepatocyte CLint” value with Rat hepatocyte came out at 7.8 μl/min/10^−6 cells. The molecule also yielded a microsomal CLint at 1 μM in series [2] of 47 µL/min/mg. Besides, in the series with MDR1, BCRP, the efflux ratio at 120 min, 5 μM is 3.5.
In series [1], `Cc1cc2ncnn2cc1Nc1ncc2c(C)nn(C3CCOC(C)(C)C3)c2n1` (single isomer, unassigned) [Example 116, 1-(2,2-dimethyltetrahydro-2H-pyran-4-yl)-3-methyl-N-(7-methyl-[1,2,4]triazolo[1,5-a]pyridin-6-yl)-1H-pyrazolo[3,4-d]pyrimidin-6-amine] registered an IC50 of 1.6 nM. For the same molecule, the “Rat hepatocyte CLint” value with Rat hepatocyte is 9.6 μl/min/10^−6 cells. In addition, the microsomal CLint at 1 μM in series [2] amounted to 71.1 µL/min/mg. Further, in the series with MDR1, BCRP, the efflux ratio at 120 min, 5 μM is 2.
For `Cc1cc2ncnn2cc1Nc1ncc2c(n1)c(C1CCOCC1)cn2C` [Example 3, 7-methyl-N-(5-methyl-7-(tetrahydro-2H-pyran-4-yl)-5H-pyrrolo[3,2-d]pyrimidin-2-yl)-[1,2,4]triazolo[1,5-a]pyridin-6-amine], the concentration for half-maximal inhibition (IC50) in series [1] came to 10.2 nM. For the same molecule, the “Rat hepatocyte CLint” value in the series on Rat hepatocyte was 9.8 μl/min/10^−6 cells. Further, the intrinsic metabolic clearance (microsomal CLint) at 1 μM in series [2] is 39.7 µL/min/mg. Further, the efflux ratio at 120 min, 5 μM in the series on MDR1, BCRP came to 3.1.
For `Cc1cc2ncnn2cc1Nc1ncc2c(n1)c(C(C)C)nn2C` [Example 4, 3-isopropyl-1-methyl-N-(7-methyl-[1,2,4]triazolo[1,5-a]pyridin-6-yl)-1H-pyrazolo[4,3-d]pyrimidin-5-amine], in that order: 1.6 nM, 10.7 μl/min/10^−6 cells, 47.3 µL/min/mg and 0.9.
Consider `Cc1cc2ncnn2cc1Nc1ncc2c(n1)c(C1CCCCC1)nn2C` [Example 5, 3-cyclohexyl-1-methyl-N-(7-methyl-[1,2,4]triazolo[1,5-a]pyridin-6-yl)-1H-pyrazolo[4,3-d]pyrimidin-5-amine], for which inhibition in series [1] was half-maximal at 0.4 nM (IC50). In the series with Rat hepatocyte, the “Rat hepatocyte CLint” value turned out to be 22.8 μl/min/10^−6 cells. In addition, the intrinsic metabolic clearance (microsomal CLint) at 1 μM in series [2] is 135 µL/min/mg. Besides, the efflux ratio at 120 min, 5 μM with MDR1, BCRP stood at 0.8.
In series [1], `Cc1cc2nccn2cc1Nc1ncc2c(n1)c(C1=CCOCC1)nn2C` [Example 6, 3-(3,6-dihydro-2H-pyran-4-yl)-1-methyl-N-(7-methylimidazo[1,2-a]pyridin-6-yl)-1H-pyrazolo[4,3-d]pyrimidin-5-amine] showed a 50% inhibitory concentration (IC50) of 1.6 nM. The “Rat hepatocyte CLint” value with Rat hepatocyte stood at 6.8 μl/min/10^−6 cells. Also, the microsomal CLint at 1 μM in series [2] was 35.5 µL/min/mg. For the same molecule, in the series with MDR1, BCRP, the efflux ratio at 120 min, 5 μM came out at 4.9.
For `CO[C@H]1CC[C@@H](c2nn(C)c3cnc(Nc4cn5ncnc5cc4C)nc32)CC1` [Example 8, 3-((1s,4s)-4-methoxycyclohexyl)-1-methyl-N-(7-methyl-[1,2,4]triazolo[1,5-a]pyridin-6-yl)-1H-pyrazolo[4,3-d]pyrimidin-5-amine], in that order: 0.7 nM, 20.7 μl/min/10^−6 cells, 234 µL/min/mg and 1.7.
